Test results: patent US8192962B2, “Processes for detecting toxic substances” (Daikin Industries, Ltd., priority 2001, dated 2012)

Tested on: Transport facilitation protein genes
Experiment: DNA chip mRNA expression in yeast, transport facilitation protein genes (Table 5)
Type: cell-based, Saccharomyces cerevisiae S288C
Method in brief: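 First, S288C yeast grown in YPD at 25° C. are dosed in log phase with one toxicant (growth-inhibiting, not lethal) for 2 h. Next, total RNA is extracted and poly(A) mRNA isolated and reverse-transcribed with Cy3/Cy5-dUTP. Finally, whole-genome chip fluorescence is read relative to unexposed cells.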

For `N#Cc1c(Cl)c(Cl)c(Cl)c(C#N)c1Cl` [(9), 2,4,5,6-tetrachloro-1,3-benzenedicarbonitrile], which “The level of expressed mRNA in the presence of chemical substance/The level of expressed mRNA in the absence of chemical substance” value (yeast gene YBL030C) is on record?
The value was 0.4.

And the “The level of expressed mRNA in the presence of chemical substance/The level of expressed mRNA in the absence of chemical substance” value (yeast gene YBL099W)?
The value was 0.9.

What about the “The level of expressed mRNA in the presence of chemical substance/The level of expressed mRNA in the absence of chemical substance” value (yeast gene YBR052C) of the same compound?
The value was 2.3.

What about the “The level of expressed mRNA in the presence of chemical substance/The level of expressed mRNA in the absence of chemical substance” value (yeast gene YBR068C) of the same compound?
The value was 0.8.

What about the “The level of expressed mRNA in the presence of chemical substance/The level of expressed mRNA in the absence of chemical substance” value (yeast gene YBR127C) of the same compound?
Its value is 0.6.

What about the “The level of expressed mRNA in the presence of chemical substance/The level of expressed mRNA in the absence of chemical substance” value (yeast gene YBR132C) of the same compound?
Its value is 0.8.

And the “The level of expressed mRNA in the presence of chemical substance/The level of expressed mRNA in the absence of chemical substance” value (yeast gene YBR207W)?
Its value is 1.7.

And the “The level of expressed mRNA in the presence of chemical substance/The level of expressed mRNA in the absence of chemical substance” value (yeast gene YBR293W)?
Its value is 5.5.

What about the “The level of expressed mRNA in the presence of chemical substance/The level of expressed mRNA in the absence of chemical substance” value (yeast gene YBR294W) of the same compound?
The value was 5.2.

And the “The level of expressed mRNA in the presence of chemical substance/The level of expressed mRNA in the absence of chemical substance” value (yeast gene YBR295W)?
The value was 1.2.

And the “The level of expressed mRNA in the presence of chemical substance/The level of expressed mRNA in the absence of chemical substance” value (yeast gene YBR298C)?
Its value is 0.3.

And the “The level of expressed mRNA in the presence of chemical substance/The level of expressed mRNA in the absence of chemical substance” value (yeast gene YCL025C)?
Its value is 0.3.

What about the “The level of expressed mRNA in the presence of chemical substance/The level of expressed mRNA in the absence of chemical substance” value (yeast gene YCL038C) of the same compound?
The value was 1.1.

What about the “The level of expressed mRNA in the presence of chemical substance/The level of expressed mRNA in the absence of chemical substance” value (yeast gene YCR024C-A) of the same compound?
The value was 0.2.

And the “The level of expressed mRNA in the presence of chemical substance/The level of expressed mRNA in the absence of chemical substance” value (yeast gene YCR037C)?
The value was 0.6.

What about the “The level of expressed mRNA in the presence of chemical substance/The level of expressed mRNA in the absence of chemical substance” value (yeast gene YCR098C) of the same compound?
The value was 1.4.

What about the “The level of expressed mRNA in the presence of chemical substance/The level of expressed mRNA in the absence of chemical substance” value (yeast gene YDL128W) of the same compound?
Its value is 0.5.

What about the “The level of expressed mRNA in the presence of chemical substance/The level of expressed mRNA in the absence of chemical substance” value (yeast gene YDL198C) of the same compound?
The value was 1.9.

And the “The level of expressed mRNA in the presence of chemical substance/The level of expressed mRNA in the absence of chemical substance” value (yeast gene YDL210W)?
Its value is 1.2.

And the “The level of expressed mRNA in the presence of chemical substance/The level of expressed mRNA in the absence of chemical substance” value (yeast gene YDL245C)?
The value was 0.4.

And the “The level of expressed mRNA in the presence of chemical substance/The level of expressed mRNA in the absence of chemical substance” value (yeast gene YDR038C)?
Its value is 1.4.

What about the “The level of expressed mRNA in the presence of chemical substance/The level of expressed mRNA in the absence of chemical substance” value (yeast gene YDR039C) of the same compound?
The value was 1.8.

What about the “The level of expressed mRNA in the presence of chemical substance/The level of expressed mRNA in the absence of chemical substance” value (yeast gene YDR086C) of the same compound?
Its value is 0.6.

What about the “The level of expressed mRNA in the presence of chemical substance/The level of expressed mRNA in the absence of chemical substance” value (yeast gene YDR270W) of the same compound?
Its value is 2.9.

And the “The level of expressed mRNA in the presence of chemical substance/The level of expressed mRNA in the absence of chemical substance” value (yeast gene YDR298C)?
Its value is 1.0.

What about the “The level of expressed mRNA in the presence of chemical substance/The level of expressed mRNA in the absence of chemical substance” value (yeast gene YDR342C) of the same compound?
The value was 0.2.

And the “The level of expressed mRNA in the presence of chemical substance/The level of expressed mRNA in the absence of chemical substance” value (yeast gene YDR343C)?
The value was 0.3.

And the “The level of expressed mRNA in the presence of chemical substance/The level of expressed mRNA in the absence of chemical substance” value (yeast gene YDR345C)?
Its value is 0.2.

What about the “The level of expressed mRNA in the presence of chemical substance/The level of expressed mRNA in the absence of chemical substance” value (yeast gene YDR387C) of the same compound?
Its value is 1.4.

What about the “The level of expressed mRNA in the presence of chemical substance/The level of expressed mRNA in the absence of chemical substance” value (yeast gene YDR497C) of the same compound?
The value was 0.4.

What about the “The level of expressed mRNA in the presence of chemical substance/The level of expressed mRNA in the absence of chemical substance” value (yeast gene YEL027W) of the same compound?
The value was 0.9.

What about the “The level of expressed mRNA in the presence of chemical substance/The level of expressed mRNA in the absence of chemical substance” value (yeast gene YEL063C) of the same compound?
The value was 0.8.

And the “The level of expressed mRNA in the presence of chemical substance/The level of expressed mRNA in the absence of chemical substance” value (yeast gene YEL065W)?
Its value is 0.1.

What about the “The level of expressed mRNA in the presence of chemical substance/The level of expressed mRNA in the absence of chemical substance” value (yeast gene YER053C) of the same compound?
The value was 1.3.

What about the “The level of expressed mRNA in the presence of chemical substance/The level of expressed mRNA in the absence of chemical substance” value (yeast gene YFL011W) of the same compound?
Its value is 0.3.

What about the “The level of expressed mRNA in the presence of chemical substance/The level of expressed mRNA in the absence of chemical substance” value (yeast gene YFL041W) of the same compound?
Its value is 0.8.

And the “The level of expressed mRNA in the presence of chemical substance/The level of expressed mRNA in the absence of chemical substance” value (yeast gene YFL050C)?
The value was 0.5.

And the “The level of expressed mRNA in the presence of chemical substance/The level of expressed mRNA in the absence of chemical substance” value (yeast gene YFL054C)?
The value was 2.0.

And the “The level of expressed mRNA in the presence of chemical substance/The level of expressed mRNA in the absence of chemical substance” value (yeast gene YGL006W)?
Its value is 3.0.

What about the “The level of expressed mRNA in the presence of chemical substance/The level of expressed mRNA in the absence of chemical substance” value (yeast gene YGL008C) of the same compound?
The value was 0.0.

And the “The level of expressed mRNA in the presence of chemical substance/The level of expressed mRNA in the absence of chemical substance” value (yeast gene YGL104C)?
The value was 4.6.

And the “The level of expressed mRNA in the presence of chemical substance/The level of expressed mRNA in the absence of chemical substance” value (yeast gene YGL167C)?
Its value is 1.3.

What about the “The level of expressed mRNA in the presence of chemical substance/The level of expressed mRNA in the absence of chemical substance” value (yeast gene YGL255W) of the same compound?
Its value is 0.3.

And the “The level of expressed mRNA in the presence of chemical substance/The level of expressed mRNA in the absence of chemical substance” value (yeast gene YGR055W)?
The value was 5.0.

And the “The level of expressed mRNA in the presence of chemical substance/The level of expressed mRNA in the absence of chemical substance” value (yeast gene YGR065C)?
Its value is 1.2.

And the “The level of expressed mRNA in the presence of chemical substance/The level of expressed mRNA in the absence of chemical substance” value (yeast gene YGR082W)?
The value was 0.6.

What about the “The level of expressed mRNA in the presence of chemical substance/The level of expressed mRNA in the absence of chemical substance” value (yeast gene YGR096W) of the same compound?
Its value is 0.8.

And the “The level of expressed mRNA in the presence of chemical substance/The level of expressed mRNA in the absence of chemical substance” value (yeast gene YGR138C)?
The value was 0.5.

What about the “The level of expressed mRNA in the presence of chemical substance/The level of expressed mRNA in the absence of chemical substance” value (yeast gene YGR191W) of the same compound?
The value was 0.1.

What about the “The level of expressed mRNA in the presence of chemical substance/The level of expressed mRNA in the absence of chemical substance” value (yeast gene YGR197C) of the same compound?
The value was 16.7.

What about the “The level of expressed mRNA in the presence of chemical substance/The level of expressed mRNA in the absence of chemical substance” value (yeast gene YGR224W) of the same compound?
Its value is 0.9.
